In PubChem BioAssay (NCI):
Where “and” joins values, the source holds several entries; their conditions need not be identical. Identical values can stand only once.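 Protocol summary: plate cells (96-well), add compound at 5 concentrations, incubate 48 h, interpolate endpoints linearly. GI50: concentration for 50% inhibition of growth. At the TGI there is no net growth.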 Where a SMILES comes first, the peptide text is derived from it. [ ]: non-standard residue; d: D form. Ac5c = NC1(C(=O)O)CCCC1

Key:
Test in all cases: NCI-60 cell line screen, 48 h
ACHN renal = test system: ACHN renal
UACC-62 melanoma = test system: UACC-62 melanoma
HCC-2998 colon = test system: HCC-2998 colon
HCT-15 colon = test system: HCT-15 colon
SF-295 CNS = test system: SF-295 CNS
CAKI-1 renal = test system: CAKI-1 renal
SF-268 CNS = test system: SF-268 CNS
SNB-75 CNS = test system: SNB-75 CNS
786-0 renal = test system: 786-0 renal
MDA-MB-435 = test system: MDA-MB-435

| SMILES | TGI (ACHN renal) [µM] | TGI (UACC-62 melanoma) [µM] | TGI (HCC-2998 colon) [µM] | TGI (HCT-15 colon) [µM] | TGI (SF-295 CNS) [µM] | TGI (CAKI-1 renal) [µM] | TGI (SF-268 CNS) [µM] | TGI (SNB-75 CNS) [µM] | TGI (786-0 renal) [µM] | GI50 (ACHN renal) [µM] | GI50 (UACC-62 melanoma) | GI50 (HCC-2998 colon) [µM] | GI50 (HCT-15 colon) [µM] | GI50 (SF-295 CNS) | GI50 (CAKI-1 renal) | GI50 (SF-268 CNS) | GI50 (MDA-MB-435) [µM] | TGI (MDA-MB-435) [µM] | GI50 (786-0 renal) |
| --- | --- | --- | --- | --- | --- | --- | --- | --- | --- | --- | --- | --- | --- | --- | --- | --- | --- | --- | --- |
| CC[C@@H]1OC2(C)CC(S(=O)(=O)c3ccccc3O)CC1O2 (stereo partly drawn) | > 100 | > 100 | > 100 | > 100 | > 100 | > 100 | > 100 | > 100 | > 100 |  |  |  |  |  |  |  |  |  |  |
| COc1ccc(-c2onc(-c3ccc([N+](=O)[O-])cc3)c2C2=NCCN2)cc1 | > 100 | > 100 | > 100 | > 100 | > 100 | > 100 | > 100 | 44 | 43 |  |  |  |  |  |  |  |  |  |  |
| C=CC1(C(=O)O)CCC(C(C)(C)C)CC1 (stereo not drawn) | > 100 | > 100 | > 100 | > 100 | > 100 | > 100 | > 100 | > 100 | > 100 |  |  |  |  |  |  |  |  |  |  |
| O=C(/C=C/c1ccc([N+](=O)[O-])o1)N1CCN(Cc2ccccc2)CC1 | 28.3 | 20.6 | 29.3 | 15.9 | 29.2 | 21.7 | 29.5 | 30.4 | 26.1 |  |  |  |  |  |  |  |  |  |  |
| NC(=O)C(=Cc1ccc(C(O)P(=O)(O)O)cc1)C(N)=O (stereo not drawn) | > 100 | > 100 | > 100 | > 100 | > 100 | > 100 |  | > 100 | > 100 |  |  |  |  |  |  |  |  |  |  |
| CCOC(=O)c1cc(C#N)c(=O)n(/N=C(\C)c2ccncc2)c1O | > 100 | > 100 | > 100 | > 100 | > 100 | > 100 | > 100 |  | > 100 | > 100 | > 100 µM | > 100 | > 100 | > 100 µM | > 100 µM | > 100 µM | > 100 | > 100 | > 100 µM |
| CC/C(C)=C1\CCC(CN2CCOCC2)C1=O (stereo not drawn) | 19.8 | 32.7 | 39.4 | 26.5 | > 100 | 5.99 | 26 | 40.6 | 22.9 |  |  |  |  |  |  |  |  |  |  |
| COc1cc(OC)c(/C=C/S(=O)(=O)Cc2cnc(OC)c(N)c2)c(OC)c1 | > 100 | > 100 | > 100 | > 100 | > 100 | > 100 | > 100 |  | > 100 | < 0.0233 | < 0.01 µM | < 0.0333 | < 0.019 | < 0.0133 µM | < 0.0177 µM | < 0.0328 µM |  |  | < 0.031 µM |
| COc1cc(/C=C(\C#N)C(=O)c2ccccc2)ccc1OCc1ccccc1 | > 100 | > 100 | > 100 | > 100 | > 100 | > 100 |  |  | > 100 |  |  |  |  |  |  |  |  |  |  |
| Cc1c(NC(=O)C(C)(C)Br)c(=O)oc2c(C)c3occc(=O)c3cc12 | > 100 | > 100 | > 100 | > 100 | > 100 |  | > 100 | > 100 | > 100 |  |  |  |  |  |  |  |  |  |  |
| CC1C[C@@]2(c3ccccc3)C(=O)CCC[C@H]2N1 (stereo partly drawn) | > 100 | > 100 |  |  | > 100 | > 100 | > 100 | > 100 | > 100 |  |  |  |  |  |  |  |  |  |  |
| O=C1c2ccccc2-c2cccc3ccc(Cc4ccc5ccccc5c4)c1c23 | > 100 | > 100 | > 100 | > 100 | > 100 |  | > 100 | > 100 | > 100 |  |  |  |  |  |  |  |  |  |  |
| CN1CCN(CCCN)CC1 | > 100 | > 100 |  | > 100 | > 100 | > 100 | > 100 | > 100 | > 100 |  |  |  |  |  |  |  |  | > 100 |  |
| COc1cc(Cl)c2c3c(c(C(C)=O)oc13)CCC2 | > 100 | > 100 | > 100 | > 100 | > 100 | > 100 |  | > 100 | > 100 |  |  |  |  |  |  |  |  |  |  |
| CCNC(=O)CCN(C(=O)O)S(=O)(=O)c1ccc(NC(=O)c2ccccc2)cc1 | > 100 | > 100 | > 100 | > 100 | > 100 | > 100 | > 100 | > 100 | 28.3 |  |  |  |  |  |  |  |  |  |  |
| O=S(=O)(N/N=C/c1ccc(/C=N/NS(=O)(=O)c2ccccc2)cc1)c1ccccc1 | > 100 | 54.1 | > 100 | > 100 | 45.6 |  | > 100 | > 100 | > 100 |  |  |  |  |  |  |  |  |  |  |
| COC(=O)CCc1cc(OC)c2c(c1)C(C(=O)OC)C(c1ccc(OC)c(OC)c1)O2 (stereo not drawn) | > 100 | > 100 | > 100 | > 100 | > 100 | > 100 | > 100 | 50.6 | > 100 |  | > 100 µM and 16.7 µM |  |  | > 100 µM and 17.1 µM | > 100 µM and 45.5 µM | > 100 µM and 37.9 µM |  |  | > 100 µM and 40.9 µM |
| CCCCCCCCC[C@@H]1CC(=O)OCC2OC(O[C@H](CCCCCCCCC)CC(=O)OCC3OC(O[C@H](CCCCCCCCC)CC(=O)OCC4OC(O1)C(O)C(O)C4O)C(O)C(O)C3O)C(O)C(O)C2O (stereo partly drawn) | 26.1 | 28.6 | 24.7 | 21 | 27.1 | 14.9 | 7.74 | 22.5 | 16.2 |  |  |  |  |  |  |  |  |  |  |
| NNC(=O)/C(=C/c1ccc(Cl)c(Cl)c1)NC(=O)c1ccccc1 | > 100 | > 100 | > 100 |  | > 100 |  | > 100 | > 100 | > 100 |  |  |  |  |  |  |  |  |  |  |
| COc1ccccc1N1C(=O)/C(=C/c2ccc(N(CCC#N)CCC#N)cc2C)N=C1c1cc([N+](=O)[O-])ccc1Cl | > 100 |  | > 100 | > 100 | > 100 | > 100 | > 100 | > 100 | > 100 |  |  |  |  |  |  |  |  |  |  |
| NC1(C(=O)NC2(C(=O)O)CCCC2)CCCC1 (H-[Ac5c]-[Ac5c]-OH) | > 100 | > 100 |  | > 100 | > 100 | > 100 | > 100 | > 100 | > 100 |  |  |  |  |  |  |  |  | > 100 |  |
